IC50 data for 13 molecules are collected here from patent publication US20230210999A1, “TARGETED PROTEASE DEGRADATION (TED) PLATFORM” (EUBULUS BIOTHERAPEUTICS INC., priority 2020, published 2023).

The structures appear in SMILES notation. Read-outs that look alike come from different tables or passages of the source.

What all share (type): cell-based, human
One assay deals with PC-3. Description: Cell proliferation experiment, PC-3. The note with it: read-out: Inhibitory activity IC50 on PC-3. As to the method:
(§1) Reagents: RPMI-1640 medium, McCoy's 5A medium, IMDM medium, MEM medium, L-15 medium, fetal bovine serum. Penicillin-Streptomycin double antibody, trypsin, etc., 2-mercaptoethanol, NEAA, pyruvate, etc.
(§2) The cells were cultured in conventional ways, and the cells should be passed at least 2 generations before plating. Cells at the logarithmic growth phase were collected, prepared into single cell suspensions and counted. The concentration of cells was adjusted to the desired concentration, and cells were inoculated into a 96-well cell culture plate at 100 μl per well. 100 μL of complete medium of the test compound were added to each well, set up 2 duplicate wells for each concentration, and diluted with a 5-fold gradient, and continued to culture for 72 h. All cells were subjected to IC50 test for corresponding samples. The experimental results are shown in Test Example 4.
(§3) The fluorescence intensity of each well was detected using the Alarm blue method, and IC50 was calculated.
(§4) IC50 was calculated according to the following formula:
(§5) Y=Max+(Min−Max)/[1+(X/IC50)×Slope]
(§6) wherein Min, Max and Slope represent the minimum, maximum and slope respectively.

A further assay has as its system MV4;11 cells. Description: Cell proliferation experiment (Alamar blue, 72 h), MV4;11. The settings on record: Homo sapiens. An outline of the steps:
(§7)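 Cells were passaged at least twice, harvested in log phase and plated in 96 wells. Compound in complete medium was added at 5-fold gradient concentrations, duplicates per concentration. After 72 h culture, Alamar blue fluorescence was measured and IC50 fitted.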

A further assay has as its system MDA-MB-231 cells. Description: Cell proliferation experiment, MDA-MB-231. As to the method: as §1, §2, §3, §4, §5, §6
In the next assay the test system is NCIH82 cells. Description: Cell proliferation experiment, NCI-H82. The note with it: Homo sapiens, NCI-H82, NCI-H82 cells; read-out: Inhibitory activity IC50 on NCI-H82. An outline of the steps: as §7
The next assay has as its system Daudi cells. The experiment in a line: Cell proliferation experiment, Daudi. The settings on record: Homo sapiens, Daudi, read-out: Inhibitory activity IC50 on Daudi. The procedure, abridged:
as §7

[1] abbreviates: MV4-11, MV4;11 cells, read-out: Inhibitory activity IC50 on MV4;11.
Where [2] appears, read: Homo sapiens, MDA-MB-231, MDA-MB-231 cells, read-out: Inhibitory activity IC50 on MDA-MB-231.

On to `CNC(=O)c1ccccc1Nc1nc(Nc2ccc(N3CCN(C(=O)NCCCOCCNCCC#Cc4ccc5c(c4)CN(C4CCC(=O)NC4=O)C5=O)CC3)cc2)ncc1Cl` (stereo not drawn) [UB-181110], for which the IC50 in the assay with PC-3 (Homo sapiens, PC-3, PC-3 cells) was over 1000 nM; in the assay on MV4;11 cells (setting [1]) it was 10 to 100 nM; in the assay on MDA-MB-231 cells (setting [2]), over 1000 nM; with NCIH82 cells, 100 to 1000 nM.

Consider `NC(=O)c1ccccc1Nc1nc(Nc2ccc(N3CCN(C(=O)N[C@H]4CC[C@@H](NCC(O)CC#Cc5ccc6c(c5)CN(C5CCC(=O)NC5=O)C6=O)CC4)CC3)cc2)ncc1Cl` (stereo partly drawn) [UB-181203], for which the IC50 was 100 to 1000 nM with PC-3 (Homo sapiens, PC-3, PC-3 cells); 100 to 1000 nM in the assay on NCIH82 cells; 100 to 1000 nM in the assay with Daudi cells (Daudi cells).

For the molecule `CC[C@@H]1C(=O)N(C)c2cnc(Nc3ccc(-c4cn([C@H]5CC[C@@H](NCCOCCC#Cc6cccc7c6CN(C6CCC(=O)NC6=O)C7=O)CC5)nn4)nc3)nc2N1C1CCCC1` (stereo partly drawn) [UB-181153], the IC50 lay in the range of 100 to 1000 nM in the assay with PC-3 (Homo sapiens, PC-3, PC-3 cells); 10 to 100 nM in the assay on MV4;11 cells (setting [1]); 100 to 1000 nM in the assay with MDA-MB-231 cells (setting [2]).

For the molecule `O=C1CCC(N2Cc3cc(NC(=O)CCCCCCCCCNCCn4cc(-c5ccc(Nc6ncc7c(n6)-c6ccc(Cl)cc6C(c6c(F)cccc6F)=NC7)cc5)nn4)ccc3C2=O)C(=O)N1` (stereo not drawn) [UB-180986], the IC50 with MV4;11 cells (setting [1]) was 10 to 100 nM; with MDA-MB-231 cells (setting [2]) it was over 1000 nM; in the assay on NCIH82 cells, 100 to 1000 nM; in the assay with Daudi cells (Daudi cells), 100 to 1000 nM.

With `CC[C@@H]1C(=O)N(C)c2cnc(Nc3ccc(-c4cn([C@H]5CC[C@@H](NCCCOCC#Cc6cccc7c6CN(C6CCC(=O)NC6=O)C7=O)CC5)nn4)cc3OC)nc2N1C1CCCC1` (stereo partly drawn) [UB-181089], the half-maximal inhibitory concentration (IC50) lay in the range of 10 to 100 nM with PC-3 (Homo sapiens, PC-3, PC-3 cells); 10 to 100 nM in the assay with MV4;11 cells (setting [1]); 10 to 100 nM in the assay on MDA-MB-231 cells (setting [2]).

As to `O=C1CCC(N2Cc3cc(NC(=O)CCOCCOCCOCCN[C@H]4CC[C@@H](n5cc(-c6ccc(Nc7ncc8c(n7)-c7ccc(Cl)cc7C(c7c(F)cccc7F)=NC8)cc6)nn5)CC4)ccc3C2=O)C(=O)N1` (stereo partly drawn) [UB- 180980], the IC50 in the assay on MV4;11 cells (setting [1]) is under 10 nM; with MDA-MB-231 cells (setting [2]), over 1000 nM; in the assay on NCIH82 cells it was over 1000 nM; in the assay with Daudi cells (Daudi cells) it was 100 to 1000 nM.

Consider `CC[C@@H]1C(=O)N(C)c2cnc(Nc3ccc(-c4cn([C@H]5CC[C@@H](N(C)CCOCCC#Cc6cccc7c6CN(C6CCC(=O)NC6=O)C7=O)CC5)nn4)cc3OC)nc2N1C1CCCC1` (stereo partly drawn) [UB-181045], for which the IC50 in the assay with PC-3 (Homo sapiens, PC-3, PC-3 cells) was 100 to 1000 nM; in the assay on MV4;11 cells (setting [1]), under 10 nM; with MDA-MB-231 cells (setting [2]), under 10 nM.

On to `CC[C@@H]1C(=O)N(C)c2cnc(Nc3ccc(NC(=O)N[C@H]4CC[C@H](NCCOCCC#Cc5cccc6c5CN(C5CCC(=O)NC5=O)C6=O)CC4)cc3OC)nc2N1C1CCCC1` (stereo partly drawn) [UB-181130], for which the IC50 in the assay with PC-3 (Homo sapiens, PC-3, PC-3 cells) is 100 to 1000 nM; with MV4;11 cells (setting [1]) it was under 10 nM; with MDA-MB-231 cells (setting [2]), 100 to 1000 nM.

Regarding `NC(=O)c1ccccc1Nc1nc(Nc2ccc(C3CCN(C(=O)N[C@H]4CC[C@@H](NCCCCOCCC#Cc5ccc6c(c5)CN(C5CCC(=O)NC5=O)C6=O)CC4)CC3)cc2)ncc1Cl` (stereo partly drawn) [UB-181205], the IC50 with PC-3 (Homo sapiens, PC-3, PC-3 cells) is 100 to 1000 nM; with NCIH82 cells it was 100 to 1000 nM; with Daudi cells (Daudi cells), 100 to 1000 nM.

Turning to `CC[C@@H]1C(=O)N(C)c2cnc(Nc3ccc(C(=O)NCCCOCCCN(CCC#Cc4cccc5c4CN(C4CCC(=O)NC4=O)C5=O)C(=O)OC(C)C(C)SSC[C@@H](NC(=O)[C@@H](CC(=O)O)NC(=O)[C@@H](CC(=O)O)NC(=O)[C@@H](CCCNC(=N)N)NC(=O)[C@@H](CC(=O)O)NC(=O)CC[C@H](NC(=O)c4ccc(NCc5cnc6nc(N)[nH]c(=O)c6n5)cc4)C(=O)O)C(=O)O)cc3OC)nc2N1C1CCCC1` (stereo partly drawn) [UB-180939], the IC50 in the assay with MV4;11 cells (MV4-11, read-out: Inhibitory activity IC50 on MV4;11) was 10 to 100 nM; in the assay with MDA-MB-231 cells (Homo sapiens, MDA-MB-231, read-out: Inhibitory activity IC50 on MDA-MB-231) it was over 1000 nM; in the assay with Daudi cells it was 100 to 1000 nM.

In the case of `CC[C@@H]1C(=O)N(C)c2cnc(Nc3ccc(-c4cn([C@H]5CC[C@@H](N(CCOCCC#Cc6cccc7c6CN(C6CCC(=O)NC6=O)C7=O)C(=O)CO)CC5)nn4)cc3OC)nc2N1C1CCCC1` (stereo partly drawn) [UB-181063], the IC50 with PC-3 (Homo sapiens, PC-3, PC-3 cells) is 100 to 1000 nM; with MV4;11 cells (setting [1]), under 10 nM; with MDA-MB-231 cells (setting [2]), 100 to 1000 nM.

Take `CC[C@@H]1C(=O)N(C)c2cnc(Nc3ccc(C(=O)N[C@H]4CC[C@@H](NCCOCCC#Cc5cccc6c5CN([C@H]5CCC(=O)NC5=O)C6=O)CC4)cc3)nc2N1C1CCCC1` [UB-181179]: the IC50 in the assay on PC-3 (PC-3 cells) lay within 10 to 100 nM; with MDA-MB-231 cells (MDA-MB-231 cells, read-out: Inhibitory activity IC50 on MDA-MB-231) it was 10 to 100 nM.

In the case of `O=C1CCC(N2Cc3cc(NC(=O)CCOCCOCCOCCn4cc(-c5ccc(Nc6ncc7c(n6)-c6ccc(Cl)cc6C(c6c(F)cccc6F)=NC7)cc5)nn4)ccc3C2=O)C(=O)N1` (stereo not drawn) [UB-180950], the IC50 in the assay on MV4;11 cells (setting [1]) is under 10 nM; in the assay on MDA-MB-231 cells (setting [2]), over 1000 nM; in the assay with NCIH82 cells, 100 to 1000 nM; in the assay on Daudi cells (Daudi cells), 100 to 1000 nM.

What is called IC50 is the concentration that inhibits the measured activity by half.
